# Source: US20090318379A1, “Statins for the Treatment of Viral Influenza Infections” (priority 2006, published 2009)
# Read-outs that look alike come from different tables or passages of the source.
# Experiments:
# [1] = tested on: Influenza A H5N1; type: cell-based, Influenza A H5N1 (isolated in 1997 from human)
# [2] = tested on: Influenza A H5N1; type: cell-based, Influenza A H5N1 (isolated in 1997 from human); remark: listed apart in the source
# [3] = tested on: Influenza A H5N1; type: cell-based, Influenza A H5N1 (isolated in 1997 from human); remark: listed apart in the source
# [4] = tested on: MDCK cells
# [5] = tested on: MDCK cells; remark: listed apart in the source
# [6] = tested on: MDCK cells; remark: listed apart in the source
smiles,measurement,setting,value
"NC(=O)c1ncn([C@@H]2O[C@H](CO)[C@@H](O)[C@H]2O)n1 [RIBAVIRIN, Ribavirin, reference compound]",Number of plaques,[1],11000
same,No. of plaque,[2],0
same,No. of plaque 1st well,[3],134
same,No. of plaque 2nd well,[3],131
same,No. of plaque 3rd well,[3],132
same,Cytotoxicity in virus yield reduction assay,[4],No
same,Cytotoxicity,[5],No
same,Cytotoxicity,[6],No
